Reference: ChEMBL document CHEMBL3217560, “Synthesis and binding affinities for sst receptors of cyclic peptoid SRIF-mimetics” (Medchemcomm, 2012)
pKi: −log10 of the molar value. Positions of bridges follow the written chain, without caps; N, C: chain ends. Non-standard residues stand in square brackets, D forms with d. Residues, ends and D or L forms follow the SMILES beside them. *: point of attachment. Threoninol(2S,3R) = C[C@@H](O)[C@H](CO)N*

Columns and labels:
[1] = target: Somatostatin receptor type 1 (Homo sapiens, UniProt P30872); assay: Displacement of [125I]-somatostatin from human sst1 receptor after 2 hrs by beta scintillation counting analysis
Somatostatin receptor type 1, sequence (P30872 whole entry): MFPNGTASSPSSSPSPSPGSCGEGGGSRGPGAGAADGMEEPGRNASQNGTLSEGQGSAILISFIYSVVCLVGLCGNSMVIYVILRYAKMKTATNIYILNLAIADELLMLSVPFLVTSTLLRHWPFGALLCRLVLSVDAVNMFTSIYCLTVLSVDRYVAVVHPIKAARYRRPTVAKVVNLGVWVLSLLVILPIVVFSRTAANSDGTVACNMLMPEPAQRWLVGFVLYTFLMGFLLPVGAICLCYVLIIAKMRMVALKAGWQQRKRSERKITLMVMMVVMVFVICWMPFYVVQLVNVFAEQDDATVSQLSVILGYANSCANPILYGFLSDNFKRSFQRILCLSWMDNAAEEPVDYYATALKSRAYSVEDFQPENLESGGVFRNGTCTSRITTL

[2] = target: Somatostatin receptor type 2 (Homo sapiens, UniProt P30874); assay: Displacement of [125I]-somatostatin from human sst2a receptor after 2 hrs by beta scintillation counting analysis
Somatostatin receptor type 2, sequence (P30874 whole entry): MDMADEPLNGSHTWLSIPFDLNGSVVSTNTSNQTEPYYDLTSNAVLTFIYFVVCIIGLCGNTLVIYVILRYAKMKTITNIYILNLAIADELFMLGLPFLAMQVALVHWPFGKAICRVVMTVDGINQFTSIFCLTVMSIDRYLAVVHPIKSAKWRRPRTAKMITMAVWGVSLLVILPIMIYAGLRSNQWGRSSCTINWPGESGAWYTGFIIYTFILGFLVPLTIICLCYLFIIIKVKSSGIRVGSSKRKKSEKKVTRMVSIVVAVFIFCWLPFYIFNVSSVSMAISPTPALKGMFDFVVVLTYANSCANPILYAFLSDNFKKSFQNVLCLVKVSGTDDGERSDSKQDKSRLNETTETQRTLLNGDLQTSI

[3] = target: Somatostatin receptor type 3 (Homo sapiens, UniProt P32745); assay: Displacement of [125I]-somatostatin from human sst3 receptor after 2 hrs by beta scintillation counting analysis
Somatostatin receptor type 3, sequence (P32745 whole entry): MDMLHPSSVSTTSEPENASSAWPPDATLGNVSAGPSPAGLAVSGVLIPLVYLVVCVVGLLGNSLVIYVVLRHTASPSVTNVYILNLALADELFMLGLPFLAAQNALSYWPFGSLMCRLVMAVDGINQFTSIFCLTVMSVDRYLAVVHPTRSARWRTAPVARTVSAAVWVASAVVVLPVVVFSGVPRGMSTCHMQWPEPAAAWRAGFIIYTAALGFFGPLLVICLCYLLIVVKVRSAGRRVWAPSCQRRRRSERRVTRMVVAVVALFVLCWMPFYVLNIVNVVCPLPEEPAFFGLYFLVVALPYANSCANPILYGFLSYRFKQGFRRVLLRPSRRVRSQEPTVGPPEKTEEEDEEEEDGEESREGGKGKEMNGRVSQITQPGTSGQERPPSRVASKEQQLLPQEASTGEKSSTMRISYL

[4] = target: Somatostatin receptor type 4 (Homo sapiens, UniProt P31391); assay: Displacement of [125I]-somatostatin from human sst4 receptor after 2 hrs by beta scintillation counting analysis
Somatostatin receptor type 4, sequence (P31391 whole entry): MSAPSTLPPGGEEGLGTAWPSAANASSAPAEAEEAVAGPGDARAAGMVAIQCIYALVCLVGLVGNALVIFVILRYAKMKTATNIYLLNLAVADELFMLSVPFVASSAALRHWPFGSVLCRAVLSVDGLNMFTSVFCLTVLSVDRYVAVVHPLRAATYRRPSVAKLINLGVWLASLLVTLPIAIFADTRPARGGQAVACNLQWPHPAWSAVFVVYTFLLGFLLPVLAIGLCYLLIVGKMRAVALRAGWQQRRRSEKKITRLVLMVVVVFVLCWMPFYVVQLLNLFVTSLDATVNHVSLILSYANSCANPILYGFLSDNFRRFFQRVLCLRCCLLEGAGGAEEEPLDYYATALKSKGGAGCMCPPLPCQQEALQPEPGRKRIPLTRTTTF

[5] = target: Somatostatin receptor type 5 (Homo sapiens, UniProt P35346); assay: Displacement of [125I]-somatostatin from human sst5 receptor after 2 hrs by beta scintillation counting analysis
Somatostatin receptor type 5, sequence (P35346 whole entry): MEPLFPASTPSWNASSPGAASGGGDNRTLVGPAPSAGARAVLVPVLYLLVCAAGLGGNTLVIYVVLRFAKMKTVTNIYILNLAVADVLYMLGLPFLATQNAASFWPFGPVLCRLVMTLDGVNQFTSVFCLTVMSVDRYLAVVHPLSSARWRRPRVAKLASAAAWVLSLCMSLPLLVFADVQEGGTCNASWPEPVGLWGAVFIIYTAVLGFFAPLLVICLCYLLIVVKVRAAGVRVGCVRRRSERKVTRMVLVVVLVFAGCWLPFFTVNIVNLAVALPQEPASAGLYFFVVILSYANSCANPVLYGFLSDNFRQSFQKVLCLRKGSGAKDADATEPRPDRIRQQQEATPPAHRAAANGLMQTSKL

Homo sapiens [6] = organism: Homo sapiens; assay: Selectivity ratio of Ki for human sst1 receptor to Ki for human sst4 receptor
Homo sapiens [7] = organism: Homo sapiens; assay: Selectivity ratio of Ki for human sst2a receptor to Ki or human sst4 receptor

Row | SMILES | pKi [1] | inhibition [1] | pKi [2] | inhibition [2] | pKi [3] | inhibition [3] | pKi [4] | inhibition [4] | pKi [5] | inhibition [5] | Ratio Ki (Homo sapiens [6]) | Ratio Ki (Homo sapiens [7])
1 | COC(=O)CCN(Cc1ccccc1)C(=O)CCN(C[C@@H](C)O)C(=O)CCN(CCCCN)C(=O)CCN(CCc1c[nH]c2ccccc12)C(=O)CCN(Cc1ccccc1)C(C)=O | 4.92 | Dose-dependent effect | 4.26 | Dose-dependent effect | 5.57 | Dose-dependent effect | 4.92 | Dose-dependent effect | 4.96 | Dose-dependent effect |  | 
2 | C[C@@H](O)CN1CCC(=O)N(Cc2ccccc2)CCC(=O)N(Cc2ccccc2)CCC(=O)N(CCc2c[nH]c3ccccc23)CCC(=O)N(CCCCN)CCC1=O | 5.09 | Dose-dependent effect | 4.36 | Dose-dependent effect | 5.34 | Dose-dependent effect | 5.00 | Dose-dependent effect | 5.77 | Dose-dependent effect |  | 
3 | C[C@@H](O)CN1CCC(=O)N(Cc2ccccc2)CCC(=O)N(Cc2ccccc2)CCC(=O)N(CCc2c[nH]c3ccccc23)CC(=O)N(CCCCN)CCC1=O | 4.80 | Dose-dependent effect | 4.57 | Dose-dependent effect | 5.62 | Dose-dependent effect | 5.14 | Dose-dependent effect | 5.68 | Dose-dependent effect |  | 
4 | C[C@@H](O)CN1CCC(=O)N(Cc2ccccc2)CCC(=O)N(CCc2c[nH]c3ccccc23)CC(=O)N(CCCCN)CCC1=O | 3.82 | Dose-dependent effect | 3.75 | Dose-dependent effect | 4.77 | Dose-dependent effect | 4.70 | Dose-dependent effect | 5.02 | Dose-dependent effect |  | 
5 | COC(=O)CCN(Cc1ccccc1)C(=O)CCN(C[C@@H](C)O)C(=O)CCN(CCCCN)C(=O)CN(CCc1c[nH]c2ccccc12)C(=O)CCN(Cc1ccccc1)C(C)=O | 4.80 | Dose-dependent effect | 3.96 | Dose-dependent effect | 5.51 | Dose-dependent effect | 4.68 | Dose-dependent effect | 4.88 | Dose-dependent effect |  | 
6 | C[C@@H](O)CN1CCC(=O)N(Cc2ccccc2)CCC(=O)N(CCc2c[nH]c3ccccc23)CCC(=O)N(CCCCN)CCC1=O | 3.99 | Dose-dependent effect | 3.70 | Dose-dependent effect | 4.66 | Dose-dependent effect | 5.31 | Dose-dependent effect | 4.55 | Dose-dependent effect | 20 | 40
7 | C[C@@H](O)[C@H](CO)NC(=O)[C@@H]1CSSC[C@H](NC(=O)[C@H](N)Cc2ccccc2)C(=O)N[C@@H](Cc2ccccc2)C(=O)N[C@H](Cc2c[nH]c3ccccc23)C(=O)N[C@@H](CCCCN)C(=O)N[C@@H]([C@@H](C)O)C(=O)N1 (H-[dF]CF[dW]KTC-{Threoninol(2S,3R)}; disulfide 2-7) |  | Dose-dependent effect |  | Dose-dependent effect |  | Dose-dependent effect |  | Dose-dependent effect |  |  |  | 
